# Key:
# Carbonic anhydrase 2 = Carbonic anhydrase 2 (Homo sapiens, UniProt P00918); test: Inhibition of human recombinant N-HA-tagged carbonic anhydrase 2 expressed in HEK293T cells using p-nitrophenyl acetate as substrate measured after 30 mins by colorimetric analysis
# [1] = Inhibition of human recombinant N-His-tagged carbonic anhydrase 11 expressed in HEK293T cells using p-nitrophenyl acetate as substrate measured after 30 mins by colorimetric analysis
SMILES,IC50 (Carbonic anhydrase 2) [µM],IC50 [1] [µM]
Cc1ccc(S(=O)(=O)Oc2ccc(-c3ccc4sccc4c3)cc2)cc1,3.3,1.77
Cc1ccc(S(=O)(=O)Oc2ccc(-c3ccc4occc4c3)cc2)cc1,0.5,0.28
CCCS(=O)(=O)Oc1ccc(-c2ccc3sccc3c2)cc1,0.31,7.55
CNS(=O)(=O)Oc1ccc(-c2ccc3occc3c2)cc1,1.04,0.64
CNS(=O)(=O)Oc1ccc(-c2ccc3sccc3c2)cc1,1.21,0.52
O=S(=O)(Oc1ccc(-c2ccc3occc3c2)cc1)c1ccccc1,0.41,0.85
CN(C)S(=O)(=O)Oc1ccc(-c2ccc3sccc3c2)cc1,5.82,2.84
O=S(=O)(Oc1ccc(-c2ccc3sccc3c2)cc1)c1ccc(F)cc1,2.1,3.1
O=S(=O)(Oc1ccc(-c2ccc3occc3c2)cc1)c1ccc(F)cc1,0.14,1.6
CS(=O)(=O)Oc1ccc(-c2ccc3sccc3c2)cc1,1.5,1.01
CCS(=O)(=O)Oc1ccc(-c2ccc3sccc3c2)cc1,1.3,0.14
CN(C)S(=O)(=O)Oc1ccc(-c2ccc3occc3c2)cc1,1.23,1.71
CCS(=O)(=O)Oc1ccc(-c2ccc3occc3c2)cc1,1.6,0.13
O=S(=O)(Oc1ccc(-c2ccc3sccc3c2)cc1)c1ccccc1,1.49,2.7
CCCS(=O)(=O)Oc1ccc(-c2ccc3occc3c2)cc1,1.62,0.69
CS(=O)(=O)Oc1ccc(-c2ccc3occc3c2)cc1,2.13,2.17
NS(=O)(=O)Oc1ccc(-c2ccc3occc3c2)cc1,2.6,1.11
NS(=O)(=O)Oc1ccc(-c2ccc3sccc3c2)cc1,1.32,0.24
